Experimental data: US7770577B2, “Methods and devices for treating lung dysfunction” (priority 2001, dated 2010)
Like-named read-outs stand apart in the source and are kept apart here.

Assays:
[1] = cited from earlier work
[2] = system: Pseudomonas aeruginosa (ATCC 27853); assay: Antibacterial assay of LPO system components in PBS pH 5.7 (control experiments); type: cell-based; details: 1.125 μg/ml LPO, 10^−5 M H2O2 or 5×10^−4 M SCN− added singly or in pairs
Procedure: (§1) Bacteria were collected in the stationary phase of growth and further diluted in LB broth to 5-6×10^4/ml. After adding glycerol to 15%, aliquots of bacteria were stored at −80° C.
(§2) Cultures of non-CF and CF airway epithelial cells were matched with regard to passage number, days in culture, and days at the air liquid interface. At least 24 h prior to the experiments, basolateral media of some cultures were supplemented with 100 μM KSCN. The apical surfaces of the cultures were washed with 0.25 ml PBS and the washes were pooled and stored at −20° C. […] Control experiments were performed using only PBS adjusted to pH 5.7. […] Mixtures were sampled immediately and 4 h after incubation at room temperature and CFU were determined by plating on LB Agar. Antibacterial activity was expressed as a ratio of CFU after 4 h to the starting CFU in the sample to control for slight differences in the starting number of bacteria.

[3] = system: CF airway epithelial cell cultures; assay: SCN− efflux in CF airway epithelial air-liquid interface cultures; type: cell-based, human; details: for effect on SCN^− efflux: CF cells
Procedure: (§3) J. Respir. […] Experiments comparing non-CF and CF cells were performed with cultures grown simultaneously and matched in passage number, the number of cells plated, and days in culture. […] To initiate experiments, apical surfaces of the cultures were rapidly washed three times with Dulbecco's PBS (50 μl for 6.5 mm filters or 500 μl for 24 mm filters) containing 100 μM amiloride. Following a third wash, additional aliquots were placed on the apical surface for sequential 2 min incubations at 37° C. in humidified 5% CO2.
(§4) Bronchial epithelial cells were obtained from either CF or non-CF lungs at the time of transplant or organ donation. Cells were passaged twice (thereby de-differentiated) and then cultured at an air-liquid interface for re-differentiation. […] J. Respir. […] Following three rapid PBS washes of the apical surface, additional PBS aliquots were placed on the apical surface for sequential 2 min incubations. […] Airway epithelial cell cultures from three separate CF patients were compared to three non-CF control cultures.

[4] = system: non-CF airway epithelial cell cultures; assay: SCN− efflux / apical accumulation in non-CF airway epithelial air-liquid interface cultures; type: cell-based, human
Procedure: as §3, §4

[5] = system: Pseudomonas aeruginosa (ATCC 27853); assay: LPO-dependent antibacterial activity of human airway secretions; type: cell-based
Procedure: Human airway secretions were obtained from intubated patients undergoing ambulatory outpatient elective surgery according to IRB approved protocols. Patients were selected for not having respiratory disease. Saline (3 ml) was injected into the tracheal tube and immediately suctioned into a trap. Recovered secretions were spun at 16,000 rpm for 20 min. at 4° C. The supernatant was aliquoted and stored at −80° C. for later analysis. Undiluted secretions were obtained from acutely (<24 h) intubated patients in the medical ICU who were intubated for reasons other than respiratory disease. Selected patients had no clinical signs of respiratory infection. Secretions were cleared by centrifugation (100,000×g, 30 min), aliquoted, and stored at −80° C.
as §1, §2
It is unlikely that H2O2 would continue to be produced in secretions after collection since its source is thought to be cellular in origin. For this reason, secretions were supplemented with 10^−5 M H2O2.

[6] = system: P. aeruginosa
Procedure: as §1, §2

[7] = system: human airway epithelia; assay: Apical H2O2 production by airway epithelial ALI cultures (fluorometric horseradish peroxidase micro-assay); type: cell-based
Procedure: Reverse transcription-polymerase chain reaction (RT-PCR) was performed with primers designed to detect any mammalian NADPH oxidase capable of producing H2O2 through superoxide intermediate.
Since the predicted molecular structure of Duox1 and 2 identified an intracellular loop containing 2 EF-hand calcium-binding motifs, the Ca^2+ stimulated H2O2 production was assessed. ALI cultures were stimulated for one hour with Thapsigargin (1 μM), an inhibitor of the endoplasmic reticulum calcium ATPase pump that increases intracellular Ca^2+. […] In this assay, the cells were incubated for one hour with either DPI alone or in combination with thapsigargin (1 μM).

[8] = system: Burkholderia cepacia; assay: LPO dependent killing with bovine milk LPO at pH 5.7, 6.2 and 6.8; type: cell-based; details: dapsone 10^−3 M; salicyl hydroxamic acid 10^−4 M
Description: (§5) Concentrations of the LPO system components were selected to be within the measured ranges in human airways.

[9] = system: P. aeruginosa; assay: as above; type: cell-based, Pseudomonas aeruginosa; details: dapsone 10^−3 M; salicyl hydroxamic acid 10^−4 M
Description: as §5

[10] = PBS pH 5.7, 4 h room temperature, H2O2 10^−5 M or dapsone 10^−3 M, mean±SE, n=6
[11] = long-term daily aerosol administration

**Q.** With `CC(C)Cc1ccc(C(C)C(=O)O)cc1` (stereo not drawn) [ibuprofen] as the molecule, how does the “rate of lung inflammation” value ([1]; children with CF, four-year study, high doses) read?
**A.** reduced the rate of lung inflammation

**Q.** With lactoperoxidase [LPO] as the molecule, how does the growth of bacteria [2] read?
**A.** not affected

**Q.** With `O=S(=O)(O)c1cc(N=C=S)ccc1C=Cc1ccc(N=C=S)cc1S(=O)(=O)O` [DIDS, 4,4′-diisothiocyanostilbene-2,2′disulphonic acid] as the molecule, how does the “effect on SCN^− efflux” value [3] read?
**A.** neither glibenclamide nor DIDS had any effect

**Q.** What does the source list for `COc1ccc(Cl)cc1C(=O)NCCc1ccc(S(=O)(=O)NC(=O)NC2CCCCC2)cc1` [glibenclamide]?
**A.** reversibility of inhibition of SCN^− efflux ([4]; non-CF cells): reversible; block of PKA-stimulated and baseline SCN^− efflux ([4]; non-CF cells, glibenclamide 500 μM): blocked; effect on SCN^− efflux [3]: neither glibenclamide nor DIDS had any effect

**Q.** Which growth of bacteria [2] does the source give for `OO` [H2O2, hydrogen peroxide] here?
**A.** not affected

**Q.** And the “cell growth (ratio of CFU after 4 h to starting CFU)” value [5, 10]?
**A.** 1.9±0.3

**Q.** What about the “cell growth (ratio of CFU after 4 h to starting CFU)” value ([5]; bacteria in airway secretions of six patients in presence of 10^−5 M H2O2, n=6) of the same molecule?
**A.** 0.98±0.16

**Q.** What about the “antibacterial activity in culture washes” value ([6]; H2O2 10^−5 M alone or with LPO, washes from cells cultured without basolateral SCN−) of the same molecule?
**A.** did not alone or with LPO, give rise to any antibacterial activity

**Q.** Which “apical H2O2 produced” value ([7]; ALI cultures stimulated one hour with thapsigargin 1 μM (baseline 59±16)) does the source give for `C/C=C(/C)C(=O)O[C@H]1C(C)=C2[C@H]([C@@H]1OC(=O)CCCCCCC)[C@@](C)(OC(C)=O)C[C@H](OC(=O)CCC)[C@@]1(O)[C@H]2OC(=O)[C@@]1(C)O` [thapsigargin, Thapsigargin] here?
**A.** 128±17 H2O2 pmoles/hr

**Q.** Which “SCN^− efflux after stimulation of PKA” value ([4]; non-CF cultures, dibutryl cAMP (0.5 mM) and forskolin (10 μM) together) does the source give for `CCCC(=O)Nc1ncnc2c1ncn2[C@@H]1O[C@@H]2COP(=O)(O)O[C@H]2[C@H]1OC(=O)CCC` [dibutryl cAMP] here?
**A.** increase in efflux

**Q.** What about the “SCN^− efflux after stimulation of PKA” value ([3]; CF cultures, dibutryl cAMP (0.5 mM) and forskolin (10 μM) together) of the same molecule?
**A.** did not

**Q.** Which results are given for `Nc1ccc(S(=O)(=O)c2ccc(N)cc2)cc1` [dapsone]?
**A.** effect of peroxidase inhibitor on LPO system antibacterial activity [8]: inhibited; cell growth (ratio of CFU after 4 h to starting CFU) [5, 10]: 1.9±0.3; cell growth (ratio of CFU after 4 h to starting CFU) ([5]; airway secretions with 10^−5 M H2O2 plus dapsone, n=6, p<0.05 vs no dapsone): 1.68±0.31; effect of peroxidase inhibitor on LPO system antibacterial activity [9]: inhibited

**Q.** Which results are given for `N#CS` [SCN^−, thiocyanate]?
**A.** growth of bacteria [2]: not affected; antibacterial activity in culture washes ([6]; LPO/H2O2 supplemented washes from CF cultures grown with basolateral SCN− (100 μM)): no detectable LPO-dependent effect; antibacterial activity in culture washes ([6]; LPO/H2O2 supplemented washes from non-CF cultures grown with basolateral SCN− (100 μM)): LPO-dependent killing of bacteria; antibacterial activity in culture washes ([6]; exogenous SCN− (0.5 mM) added to CF culture washes): generated antibacterial activity; antibacterial activity in culture washes ([6]; exogenous SCN− (0.5 mM) added to non-CF culture washes): increased the LPO dependent activity

**Q.** With `c1ccc2c(c1)[I+]c1ccccc1-2` [DPI, Diphenyleneiodonium] as the molecule, how does the “apical H2O2 production” value ([7]; 1 μM DPI in combination with thapsigargin (1 μM), one hour) read?
**A.** 45±19 H2O2 pmoles/hr

B1: Pulmozyme®: mucus-thinning drug, a DNAse (recombinant human deoxyribonuclease) (protein, UniProt P24855 23-282, looked up)
Deoxyribonuclease-1: LKIAAFNIQTFGETKMSNATLVSYIVQILSRYDIALVQEVRDSHLTAVGKLLDNLNQDAPDTYHYVVSEPLGRNSYKERYLFVYRPDQVSAVDSYYYDDGCEPCGNDTFNREPAIVRFFSRFTEVREFAIVPLHAAPGDAVAEIDALYDVYLDVQEKWGLEDVMLMGDFNAGCSYVRPSQWSSIRLWTSPTFQWLIPDSADTTATPTHCAYDRIVVAGMLLRGAVVPDSALPFNFQAAYGLSDQLAQAISDHYPVEVMLK
**Q.** What does the source list for B1?
**A.** lung function ([1]; clinical trials, people with CF): improved lung function; number of respiratory infections ([1]; clinical trials): reduced the number of respiratory infections; frequency of severe respiratory tract exacerbations [1, 11]: decrease the frequency of severe respiratory tract exacerbations; rate of decline in pulmonary function [1, 11]: slow the rate of decline in pulmonary function
